Laboratory results taken from BindingDB's records for doi:10.1021/acs.jmedchem.8b01596 (China Pharmaceutical University, 2019).

Biological target: Hypoxia-inducible factor 1-alpha (Homo sapiens, UniProt Q16665)
Assay: Inhibition of HIF-1alpha in human HeLa cells after 6 hrs by luciferase reporter gene assay

Sequence of Hypoxia-inducible factor 1-alpha (Q16665 whole entry): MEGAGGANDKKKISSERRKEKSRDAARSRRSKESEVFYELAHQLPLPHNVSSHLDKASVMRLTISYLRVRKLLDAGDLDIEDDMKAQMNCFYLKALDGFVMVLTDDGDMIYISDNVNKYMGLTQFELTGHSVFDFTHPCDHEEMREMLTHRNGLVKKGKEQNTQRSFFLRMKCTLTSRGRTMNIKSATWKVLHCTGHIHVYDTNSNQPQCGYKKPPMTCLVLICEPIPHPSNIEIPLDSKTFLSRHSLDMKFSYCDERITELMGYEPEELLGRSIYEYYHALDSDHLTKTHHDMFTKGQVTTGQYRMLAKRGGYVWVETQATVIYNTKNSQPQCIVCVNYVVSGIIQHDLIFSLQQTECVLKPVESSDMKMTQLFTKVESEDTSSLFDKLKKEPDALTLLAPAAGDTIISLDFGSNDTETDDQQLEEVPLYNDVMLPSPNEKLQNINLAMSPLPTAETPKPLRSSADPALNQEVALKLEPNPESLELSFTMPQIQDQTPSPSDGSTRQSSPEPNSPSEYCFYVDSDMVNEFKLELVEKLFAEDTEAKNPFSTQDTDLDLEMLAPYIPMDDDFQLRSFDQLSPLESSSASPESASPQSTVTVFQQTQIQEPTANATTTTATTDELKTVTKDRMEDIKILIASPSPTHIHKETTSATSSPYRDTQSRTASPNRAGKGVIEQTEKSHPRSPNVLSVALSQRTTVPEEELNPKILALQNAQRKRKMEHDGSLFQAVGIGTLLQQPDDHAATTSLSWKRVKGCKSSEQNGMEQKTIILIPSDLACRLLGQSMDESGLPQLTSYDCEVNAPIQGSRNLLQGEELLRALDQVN

Cc1ccc(C(=O)COC(=O)c2cccc(NC(=O)c3ccc([N+](=O)[O-])cc3[N+](=O)[O-])c2)cc1 [3-[[(2,4-dinitrophenyl)-oxomethyl]amino]benzoic acid [2-(4-methylphenyl)-2-oxoethyl] ester]
IC50: 2600 nM
